# According to PubChem BioAssay AID2060912 (Molecular Pharmacology Branch, DTP, NCI, 2025):
# pIC50: −log10 of the molar value.
# Tested on: HUVEC/MSC spheroids viability
# Experiment: Human HUVEC/MSC cell line growth inhibition [KRAS2];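 for viability, T/C: percent of DMSO vehicle control luminescence so 100% = untreated viability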
# Settings: for pIC50: curve of first compound; for viability, T/C: stronger effect = lower value
# Summary of the method: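 Spheroids of human HUVEC plus MSCs, without tumor cells, were treated with single agents and combinations. Each drug was tested in half-log steps down from near its clinical Cmax, or from 10 microM when Cmax was unknown. HUVEC and hMSC were used at passage </=5.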
# [1] = second compound 0.00949 µM, first compound 0.0316 µM
# [2] = second compound 0.00949 µM, first compound 0.1 µM
# [3] = second compound 0.00949 µM, first compound 0.316 µM
# [4] = second compound 0.00949 µM, first compound 1 µM
# [5] = second compound 0.00949 µM, first compound 3.16 µM
# [6] = second compound 0.00949 µM, first compound 10 µM
# [7] = second compound 0.03 µM, first compound 0.0316 µM
# [8] = second compound 0.03 µM, first compound 0.1 µM
# [9] = second compound 0.03 µM, first compound 0.316 µM
# [10] = second compound 0.03 µM, first compound 1 µM
# [11] = second compound 0.03 µM, first compound 3.16 µM
# [12] = second compound 0.03 µM, first compound 10 µM
# [13] = second compound 0.0949 µM, first compound 0.0316 µM
# [14] = second compound 0.0949 µM, first compound 0.1 µM
# [15] = second compound 0.0949 µM, first compound 0.316 µM
# [16] = second compound 0.0949 µM, first compound 1 µM
# [17] = second compound 0.0949 µM, first compound 3.16 µM
# [18] = second compound 0.0949 µM, first compound 10 µM
# [19] = second compound 0.3 µM, first compound 0.0316 µM
# [20] = second compound 0.3 µM, first compound 0.1 µM
# [21] = second compound 0.3 µM, first compound 0.316 µM
# [22] = second compound 0.3 µM, first compound 1 µM
# [23] = second compound 0.3 µM, first compound 3.16 µM
# [24] = second compound 0.3 µM, first compound 10 µM
# [25] = second compound 0.949 µM, first compound 0.0316 µM
# [26] = second compound 0.949 µM, first compound 0.1 µM
# [27] = second compound 0.949 µM, first compound 0.316 µM
# [28] = second compound 0.949 µM, first compound 1 µM
# [29] = second compound 0.949 µM, first compound 3.16 µM
# [30] = second compound 0.949 µM, first compound 10 µM
# [31] = second compound 3 µM, first compound 0.0316 µM
# [32] = second compound 3 µM, first compound 0.1 µM
# [33] = second compound 3 µM, first compound 0.316 µM
# [34] = second compound 3 µM, first compound 1 µM
# [35] = second compound 3 µM, first compound 3.16 µM
# [36] = second compound 3 µM, first compound 10 µM
smiles,measurement,setting,value
CC(C)NCC(C(=O)N1CCN(c2ncnc3c2C(C)CC3O)CC1)c1ccc(Cl)cc1 (stereo not drawn) + C=CC(=O)N1CCN(c2nc(OCC3CCCN3C)nc3c2CCN(c2cccc4cccc(C)c24)C3)CC1CC#N,pIC50,second compound 0.00949 µM,< 5.00
same,pIC50,second compound 0.03 µM,< 5.00
same,pIC50,second compound 0.0949 µM,< 5.00
same,pIC50,second compound 0.3 µM,5.21
same,pIC50,second compound 0.949 µM,< 5.00
same,pIC50,second compound 3 µM,< 5.00
same,"viability, T/C",[1],102%
same,"viability, T/C",[2],92.3%
same,"viability, T/C",[3],98.8%
same,"viability, T/C",[4],66.7%
same,"viability, T/C",[5],67.7%
same,"viability, T/C",[6],57.2%
same,"viability, T/C",[7],85.8%
same,"viability, T/C",[8],91.8%
same,"viability, T/C",[9],94.8%
same,"viability, T/C",[10],61.3%
same,"viability, T/C",[11],65.4%
same,"viability, T/C",[12],46.1%
same,"viability, T/C",[13],95.4%
same,"viability, T/C",[14],97.5%
same,"viability, T/C",[15],78.2%
same,"viability, T/C",[16],79.8%
same,"viability, T/C",[17],53.4%
same,"viability, T/C",[18],57.4%
same,"viability, T/C",[19],77.7%
same,"viability, T/C",[20],84.8%
same,"viability, T/C",[21],84%
same,"viability, T/C",[22],71.8%
same,"viability, T/C",[23],56.4%
same,"viability, T/C",[24],45.6%
same,"viability, T/C",[25],67.4%
same,"viability, T/C",[26],82.2%
same,"viability, T/C",[27],68.6%
same,"viability, T/C",[28],58%
same,"viability, T/C",[29],57.8%
same,"viability, T/C",[30],56%
same,"viability, T/C",[31],83.4%
same,"viability, T/C",[32],74.5%
same,"viability, T/C",[33],81.2%
same,"viability, T/C",[34],68.5%
same,"viability, T/C",[35],49.3%
same,"viability, T/C",[36],51.9%
CC1COCCN1c1cc(-c2ccnn2C)c2ccnc(-c3ccn[nH]3)c2n1 (stereo not drawn) + C=CC(=O)N1CCN(c2nc(OCC3CCCN3C)nc3c2CCN(c2cccc4cccc(C)c24)C3)CC1CC#N,pIC50,second compound 0.00949 µM,5.92
same,pIC50,second compound 0.03 µM,6.04
same,pIC50,second compound 0.0949 µM,6.20
same,pIC50,second compound 0.3 µM,6.18
same,pIC50,second compound 0.949 µM,6.44
same,pIC50,second compound 3 µM,< 5.52
same,"viability, T/C","second compound 0.00949 µM, first compound 0.00949 µM",79.3%
same,"viability, T/C","second compound 0.00949 µM, first compound 0.03 µM",76.5%
same,"viability, T/C","second compound 0.00949 µM, first compound 0.0949 µM",77%
same,"viability, T/C","second compound 0.00949 µM, first compound 0.3 µM",77%
same,"viability, T/C","second compound 0.00949 µM, first compound 0.949 µM",51.9%
same,"viability, T/C","second compound 0.00949 µM, first compound 3 µM",42.8%
same,"viability, T/C","second compound 0.03 µM, first compound 0.00949 µM",87.7%
same,"viability, T/C","second compound 0.03 µM, first compound 0.03 µM",90.9%
same,"viability, T/C","second compound 0.03 µM, first compound 0.0949 µM",77.6%
same,"viability, T/C","second compound 0.03 µM, first compound 0.3 µM",66.6%
same,"viability, T/C","second compound 0.03 µM, first compound 0.949 µM",49.7%
same,"viability, T/C","second compound 0.03 µM, first compound 3 µM",37.9%
same,"viability, T/C","second compound 0.0949 µM, first compound 0.00949 µM",73.5%
same,"viability, T/C","second compound 0.0949 µM, first compound 0.03 µM",85.3%
same,"viability, T/C","second compound 0.0949 µM, first compound 0.0949 µM",70.8%
same,"viability, T/C","second compound 0.0949 µM, first compound 0.3 µM",69.1%
same,"viability, T/C","second compound 0.0949 µM, first compound 0.949 µM",39.5%
same,"viability, T/C","second compound 0.0949 µM, first compound 3 µM",37.8%
same,"viability, T/C","second compound 0.3 µM, first compound 0.00949 µM",66.8%
same,"viability, T/C","second compound 0.3 µM, first compound 0.03 µM",71.4%
same,"viability, T/C","second compound 0.3 µM, first compound 0.0949 µM",72%
same,"viability, T/C","second compound 0.3 µM, first compound 0.3 µM",62.6%
same,"viability, T/C","second compound 0.3 µM, first compound 0.949 µM",44.2%
same,"viability, T/C","second compound 0.3 µM, first compound 3 µM",34.8%
same,"viability, T/C","second compound 0.949 µM, first compound 0.00949 µM",67.7%
same,"viability, T/C","second compound 0.949 µM, first compound 0.03 µM",65%
same,"viability, T/C","second compound 0.949 µM, first compound 0.0949 µM",68%
same,"viability, T/C","second compound 0.949 µM, first compound 0.3 µM",51.5%
same,"viability, T/C","second compound 0.949 µM, first compound 0.949 µM",45%
same,"viability, T/C","second compound 0.949 µM, first compound 3 µM",40.1%
same,"viability, T/C","second compound 3 µM, first compound 0.00949 µM",81.6%
same,"viability, T/C","second compound 3 µM, first compound 0.03 µM",78.6%
same,"viability, T/C","second compound 3 µM, first compound 0.0949 µM",86%
same,"viability, T/C","second compound 3 µM, first compound 0.3 µM",81.2%
same,"viability, T/C","second compound 3 µM, first compound 0.949 µM",54.5%
same,"viability, T/C","second compound 3 µM, first compound 3 µM",50.4%
CCN1CCN(Cc2ccc(Nc3ncc(F)c(-c4cc(F)c5nc(C)n(C(C)C)c5c4)n3)nc2)CC1 + C=CC(=O)N1CCN(c2nc(OCC3CCCN3C)nc3c2CCN(c2cccc4cccc(C)c24)C3)CC1CC#N,pIC50,second compound 0.00949 µM,< 6.00
same,pIC50,second compound 0.03 µM,< 6.00
same,pIC50,second compound 0.0949 µM,< 6.00
same,pIC50,second compound 0.3 µM,< 6.00
same,pIC50,second compound 0.949 µM,< 6.00
same,pIC50,second compound 3 µM,< 6.00
same,"viability, T/C","second compound 0.00949 µM, first compound 0.00316 µM",98.1%
same,"viability, T/C","second compound 0.00949 µM, first compound 0.01 µM",94.3%
same,"viability, T/C",[1],82.5%
same,"viability, T/C",[2],83.7%
same,"viability, T/C",[3],98.7%
same,"viability, T/C",[4],149%
same,"viability, T/C","second compound 0.03 µM, first compound 0.00316 µM",80.7%
same,"viability, T/C","second compound 0.03 µM, first compound 0.01 µM",75.4%
same,"viability, T/C",[7],97.9%
same,"viability, T/C",[8],84.2%
same,"viability, T/C",[9],111%
same,"viability, T/C",[10],142%
same,"viability, T/C","second compound 0.0949 µM, first compound 0.00316 µM",94.6%
same,"viability, T/C","second compound 0.0949 µM, first compound 0.01 µM",82%
same,"viability, T/C",[13],84.1%
same,"viability, T/C",[14],98.7%
same,"viability, T/C",[15],113%
same,"viability, T/C",[16],146%
same,"viability, T/C","second compound 0.3 µM, first compound 0.00316 µM",74.5%
same,"viability, T/C","second compound 0.3 µM, first compound 0.01 µM",89%
same,"viability, T/C",[19],86.8%
same,"viability, T/C",[20],81.3%
same,"viability, T/C",[21],115%
same,"viability, T/C",[22],126%
same,"viability, T/C","second compound 0.949 µM, first compound 0.00316 µM",85.4%
same,"viability, T/C","second compound 0.949 µM, first compound 0.01 µM",64.5%
same,"viability, T/C",[25],77.2%
same,"viability, T/C",[26],79.2%
same,"viability, T/C",[27],112%
same,"viability, T/C",[28],161%
same,"viability, T/C","second compound 3 µM, first compound 0.00316 µM",97.8%
same,"viability, T/C","second compound 3 µM, first compound 0.01 µM",85.2%
same,"viability, T/C",[31],97.9%
same,"viability, T/C",[32],109%
same,"viability, T/C",[33],158%
same,"viability, T/C",[34],106%
CCNC(=O)CC1N=C(c2ccc(Cl)cc2)c2cc(OC)ccc2-n2c(C)nnc21 (stereo not drawn) + C=CC(=O)N1CCN(c2nc(OCC3CCCN3C)nc3c2CCN(c2cccc4cccc(C)c24)C3)CC1CC#N,pIC50,second compound 0.00949 µM,< 5.00
same,pIC50,second compound 0.03 µM,< 5.00
same,pIC50,second compound 0.0949 µM,< 5.00
same,pIC50,second compound 0.3 µM,< 5.00
same,pIC50,second compound 0.949 µM,< 5.00
same,pIC50,second compound 3 µM,< 5.00
same,"viability, T/C",[1],68.5%
same,"viability, T/C",[2],79.5%
same,"viability, T/C",[3],69.5%
same,"viability, T/C",[4],115%
same,"viability, T/C",[5],100%
same,"viability, T/C",[6],90.3%
same,"viability, T/C",[7],82.6%
same,"viability, T/C",[8],76.9%
same,"viability, T/C",[9],79.1%
same,"viability, T/C",[10],108%
same,"viability, T/C",[11],119%
same,"viability, T/C",[12],110%
same,"viability, T/C",[13],73.3%
same,"viability, T/C",[14],63.3%
same,"viability, T/C",[15],78.8%
same,"viability, T/C",[16],115%
same,"viability, T/C",[17],97.8%
same,"viability, T/C",[18],111%
same,"viability, T/C",[19],72.8%
same,"viability, T/C",[20],64.3%
same,"viability, T/C",[21],60.5%
same,"viability, T/C",[22],102%
same,"viability, T/C",[23],91.9%
same,"viability, T/C",[24],104%
same,"viability, T/C",[25],53.3%
same,"viability, T/C",[26],63.1%
same,"viability, T/C",[27],82.7%
same,"viability, T/C",[28],74%
same,"viability, T/C",[29],83.7%
same,"viability, T/C",[30],86.1%
same,"viability, T/C",[31],75.5%
same,"viability, T/C",[32],89.9%
same,"viability, T/C",[33],82.7%
same,"viability, T/C",[34],67.1%
same,"viability, T/C",[35],71.2%
same,"viability, T/C",[36],54.3%
